We go through four compounds from paper PMC8230565, “Bisavenathramide Analogues as Nrf2 Inductors and Neuroprotectors in In Vitro Models of Oxidative Stress and Hyperphosphorylation” (Antioxidants, 2021).

Assay [1] is described as follows: DPPH radical scavenging assay. To be noted: n in brackets. As for the experimental part:
The direct antioxidant effects of compounds 3 were investigated by studying their radical-scavenging effect on the 2,2-diphenyl-1-picrylhydrazyl free radical (DPPH^•). Thus, a 100 μL volume of a methanol solution of each compound was added to 200 μL of 100 μM methanolic DPPH^•, and the solution was kept in the dark at 37 °C for 30 min in a 96-well microliter plate. After this incubation, the absorption at 490 nm of each solution was measured with a microplate reader in order to quantitate its decrease. A blank reading was also taken to calculate the amount of remaining DPPH^•. The radical-scavenging activity exerted by compounds 3 was determined by comparison with a 10 μL of MeOH-treated blank group. Ascorbic acid, a well-known antioxidant acting as a radical scavenger, was used as reference. All samples were analyzed in triplicate. Percent inhibition of the DPPH^• radical was calculated using the equation shown below, where AbsCtrl is the absorbance of the blank group and Abss is the absorbance of the samples containing compounds 3. For each compound showing a percentage of inhibition above 60%, the IC50 value was determined using a dose–response curve obtained from measurements corresponding to at least six concentrations. %Scavenger=AbsCtrl−AbsS/AbsCtrl×100
The radical scavenging activity of all compounds was first studied by the DPPH assay, which measures the ability of antioxidant compounds to donate a hydrogen atom to the violet 2,2-diphenyl-1-picrylhydrazyl radical and transform it into a nonradical species. Thus, it is generally considered to belong to the hydrogen atom transfer (HAT) category of methods for measurement of antioxidant activity.
(Loss of DPPH colour is used to gauge radical scavenging.)

A short description of assay [2]: Ferric reducing antioxidant power (FRAP) assay. Details: key to FRAP TEAC: trolox equivalents (TEAC), relative to trolox. Particulars: for FRAP nmol Fe2+ at 30 µM: 30 µM compound, n in brackets; for FRAP TEAC: 30 µM, relative to trolox. As for the experimental part: A ferric reducing antioxidant power (FRAP) kit assay purchased from Sigma-Aldrich (Madrid, Spain) was employed for the experiments. The antioxidant solutions, FRAP assay buffer solution, FeCl3 solution, and FRAP probe solution were kept in ice during the preparation of the plate. A calibration standard curve was prepared by using the 2 mM ferrous standard solution provided in the FRAP kit assay. Appropriate aliquots of this solution were taken and diluted up to a 200 μL final volume with FRAP buffer. The final ferrous concentrations measured in the well were: 0, 20, 40, 60, 80, and 100 μM. Each concentration value was prepared and measured by triplicate. Stock solutions of compounds 3, as well as reference compounds trolox and ferulic acid, were freshly prepared in 95% ethanol at […]. Aliquots of 10 μL of compounds 3 and the reference compounds were mixed with 19 μL FeCl3 solution and 19 μL FRAP probe solution, and then completed to a final volume of 200 μL with FRAP assay buffer solution. The final concentration of antioxidants and references was 30 μM. Compounds 3, reference compounds, as well as the corresponding blank solutions (one for each compound to be assayed, avoiding the chromogenic FRAP probe), and positive control were thoroughly mixed in vortex for 1–2 min with the reaction chromogenic media, and then were incubated under darkness at 37 °C in the dry bath, and using the device for support well-plates. Each compound to be assayed and the reference antioxidant compounds were prepared and measured by triplicate. The absorbance values were measured at 594 nm after 5 min of reaction and, to assure complete reaction, the absorbance values after 60 min of incubation at 37 °C in the dry bath were also measured. The absorbance values of the sample antioxidant compounds were corrected by subtracting the corresponding absorbance values of the blanks, and then they were introduced in the calibration curve and the ferrous equivalents were determined. The reference antioxidants employed for this assay were trolox and ferulic acid, which were obtained from Sigma-Aldrich (Madrid, Spain). Ultrapure water was obtained from a Milli-Q Direct 8 system (Millipore, Molsheim, France).
In order to achieve a broader insight into the antioxidant profile of our compounds, we also examined them using a single electron transfer (SET)-based method, namely the ferric reducing antioxidant power (FRAP) assay, which measures the ability of an antioxidant to reduce the ferric ion in the TPTZ (2,4,6-tri(2-pyridyl)-1,3,5-triazine)-Fe(III) complex.

Assay [3] deals with SH-SY5Y cells. Put plainly: Neuroprotection against okadaic acid in SH-SY5Y cells (MTT). Particulars: Homo sapiens, SH-SY5Y, 18 h; 1 µM compound; okadaic acid 20 nM; read-out: % Neuroprotection ± SEM at 1 µM (okadaic acid). The class given is cell-based. Here is the method:
Neuroprotection studies against tau hyperphosphorylation exerted by okadaic acid (OA) were evaluated using the SH-SY5Y cell line as follows. […] After 18 h, cell viability was addressed by the MTT reduction method. MTT (5 mg/mL, 10 μL/well) was added and incubated for 2 h. Then, the medium was removed and the purple formazan crystals formed by viable cells were dissolved using 100 μL of DMSO. A FluoStar Optima spectrophotometer (BMG Labtech, Ortenberg, Baden-Württemberg, Germany) was used to measure the absorbance at 570 nm.
Okadaic acid is a potent inhibitor of protein phosphatase 2A (PP2A), thereby inducing tau hyperphosphorylation. For this reason, it can be employed as a model of neurodegenerative-disease-connected tau hyperphosphorylation, a well-known feature of Alzheimer’s disease, but present also in other NDDs, collectively known as tauopathies and characterized by the pathological aggregation of hyperphosphorylated tau in neurofibrillary tangles. […] Tau hyperphosphorylation is connected to oxidative stress, which activates p38 and deactivates calcineurin, a phosphatase involved in tau dephosphorylation by increasing RCAN1, its natural repressor [34, 35]. Indeed, hyperphosphorylation and oxidative stress have been proposed to generate a vicious circle that is critical to the advance of neurodegenerative tauopathies.

Assay [4] concerns SH-SY5Y cells. Briefly: Neuroprotection against rotenone/oligomycin A in SH-SY5Y cells (MTT). The class given is cell-based. Particulars: Homo sapiens, 24 h, 1 µM compound, rotenone 30 µM + oligomycin A 10 µM, read-out: % Neuroprotection ± SEM at 1 µM (rotenone/oligomycin A). As for the experimental part:
To evaluate the compounds for their neuroprotective effect in an oxidative stress model, we selected the rotenone (30 μM) and oligomycin A (10 μM) (R/O) cocktail, which disturbs the flow of electrons in the mitochondrial respiratory chain. Similarly, SH-SY5Y cells were preincubated with compounds 3 at 1 μM for 24 h. Then, they were co-incubated in the presence of R/O for a further 24 h, evaluating cell viability by the MTT reduction method.
Thus, the R/O combination constitutes a good model of oxidative stress and neurodegeneration with a mitochondrial origin, and has been broadly employed to evaluate potential hit compounds for the treatment of neurodegenerative diseases. Furthermore, treatment of laboratory animals with rotenone is known to induce many features associated to Parkinson’s disease, such as selective nigrostriatal dopaminergic degeneration and the appearance of α-synuclein cytoplasmic inclusions, which are associated with oxidative damage.

For `O=C1O[C@H]([C@@H](O)CO)C(O)=C1O` [Ascorbic acid, reference compound], in assay [1], the IC50 (usually the point on the concentration scale where inhibition reaches its midpoint) is 16.2 ± 0.7 µM.

Turning to `COc1cc(/C=C/C(=O)O)ccc1O` [Ferulic acid, reference compound], in assay [2], the “FRAP nmol Fe2+ at 30 µM” value is 1.98 ± 0.04 (3) nmol Fe^2+ and the “FRAP TEAC” value is on record as 0.87.

Regarding `COc1ccc2[nH]cc(CCNC(C)=O)c2c1` [Melatonin, reference compound], in the assay on SH-SY5Y cells [3], the % neuroprotection against okadaic acid at 1 µM is 67.7 ± 13.9%. For the same compound, the % neuroprotection against rotenone/oligomycin A toxicity at 1 µM in the assay with SH-SY5Y cells [4] is 61.4 ± 8.75%.

`Cc1c(C)c2c(c(C)c1O)CCC(C)(C(=O)O)O2` (centres unmarked) [Trolox, reference compound] yielded an IC50 in assay [1] of 11.4 ± 1 µM. Moreover, in assay [2], the “FRAP nmol Fe2+ at 30 µM” value is 2.28 ± 0.15 (9) nmol Fe^2+ and the “FRAP TEAC” value turned out to be 1.00.
